According to US6303612A, “Derivatives of hydroxyphenylsulfanylbenzoic and hydroxphenylsulfanylarylacetic acids” (Leciva, A.S., priority 1998, dated 2001):
pIC50: −log10 of the molar value. ≈ marks a conversion by molar mass, not a printed value. Structures can show the parent of a compound that is named as a salt. Where two headings read alike, the source gives them in different places.

Tests used:
[1] = tested on: peroxidation of lipids from the hepatic cells membranes; assay: Antioxidant effect in vitro; assay type: biochemical; settings: at 100 μg
Excerpt: Antioxidant Effect in vitro
The end-product, malonic dialdehyde, was transformed to coloured complex with thiobarbituric acid and determined spectrophotometrically. The antioxidant effect was expressed in % of peroxidation inhibition in the presence of the compound tested in comparison to a control sample.

male mice = assay: Inhibition of arachidonic acid-induced ear inflammation in mice; assay type: in vivo; settings: for inhibition in vivo at 200 mg/kg: Mus musculus, po, 1 h
Procedure: Inhibition of Arachidonic Acid-induced Ear Inflammation in Mice (Opas E. E. et al.: J. Invest. Dermatol. 84, 253 (1985) Ear inflammation was induced in male mice by 20 μl of arachidonic acid dissolved in acetone (concentration 100 mg/ml). The mice were sacrificed 1 h after application of arachidonic acid and the ears were cut off by standard means. The other, vehicle-treated ear of the same animal served as a control. The degree of ear hyperemia and the weight of ear lobes were evaluated. Test compounds were administered orally 1 h before the induction of inflammation.

[2] = tested on: LTB4 production in rat polymorphonuclear cells; assay: Ex vivo inhibition of LTB4 production (LTB4 biosynthesis); assay type: cell-based; settings: for Inh. of LTB4 biosynth., %: at 30 μg (%/μg); for IC50: Rattus norvegicus, read-out: Inh. of LTB4 biosynth., IC50
Procedure: Ex vivo Inhibition of LTB4 Production The production of LTB4 was determined in rat polymorphonuclear cells from pleural exudate elicited by heat-activated rat serum (Palmer R. M. J., Salmon J. A.: Immunology 50, 65 (1983)). The cells were stimulated with the Ca ionophore A 23187 (Sigma) and incubated with various concentrations of the drugs tested. The sample containing only buffer was used for the determination of unaffected biosynthesis; the complete inhibition was measured in a sample with 100 μg of NDGA in 1 ml. LTB4 was determined in supernatant using a commercial RIA kit (Amersham).

LTD4 receptor = target: T1, LTD4 receptor (Cavia porcellus, UniProt Q2NNR5); assay: LTD4 receptor binding study; settings: 3H-LTD4, guinea-pig lung membranes; for pIC50: read-out: Inh. of LTD4 rec. binding, IC50; for inhibition at 100 µM / inhibition at 20 µM: read-out: Inh. of LTD4 rec. binding, %
T1 construct: The membrane fraction was prepared from male guinea-pig lungs; from tissue; host or cells: male guinea-pig lung membranes
T1 sequence (Q2NNR5 1-340): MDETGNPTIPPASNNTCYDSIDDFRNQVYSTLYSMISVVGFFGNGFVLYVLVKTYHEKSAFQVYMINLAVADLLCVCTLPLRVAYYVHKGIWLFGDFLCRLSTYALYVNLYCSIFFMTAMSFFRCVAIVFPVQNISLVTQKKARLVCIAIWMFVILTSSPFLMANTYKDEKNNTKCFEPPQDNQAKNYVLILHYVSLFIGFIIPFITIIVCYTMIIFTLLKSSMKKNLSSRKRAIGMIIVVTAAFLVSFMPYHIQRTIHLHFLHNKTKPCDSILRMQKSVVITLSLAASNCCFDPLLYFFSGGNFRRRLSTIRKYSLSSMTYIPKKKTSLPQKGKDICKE
Procedure: LTD4 Receptor Binding Study
This study was performed according to the method of Burns and coworkers (Burns R. F. et al.: Life Sci. 33, 645 (1983)). The membrane fraction was prepared from male guinea-pig lungs, and 4 mg of this fraction were incubated with 0.4 nM ^3 H-LTD4 for 60 min at 25° C. in 100 μl of the incubated mixture. The nonspecific binding was determined in the presence of 0.1 μM LTD4. The filtration of the membranes, washing, and radioactivity measurement were as above.

rats = assay: Inhibition of carrageenan-induced pleuritis in rats; assay type: in vivo; settings: for inhibition in vivo at 100 mg/kg: Rattus norvegicus, po, 4 h
Procedure: Inhibition of Carrageenan-induced Pleuritis in Rats
(Hidaka T. J.: Pharm. Pharmacol. 38, 242 (1986) 1 ml of 0.5% carrageenan solution in saline was administered intrapleurally to experimental animals under mild ether anesthesia. Test drugs were administered in single oral dose 1 h before carrageenan injection, 4 h following the carrageenan application the rats were killed and exudate was withdrawn from opened pleural cavity. The volume of exudate, its cellularity and total cell number were determined.

Wistar-Han rats = assay: Inhibition of carrageenan edema; assay type: in vivo; settings: for inhibition in vivo at 100 mg/kg: Rattus norvegicus, read-out: CE: inhibition of carrageenan-induced edema, % of inh.
LTB4 receptor = LTB4 receptor (Cavia porcellus, UniProt H0VYV8); assay: LTB4 receptor binding study; settings: 3H-LTB4, guinea-pig spleen membranes; for pIC50: read-out: Inh. of LTB4 rec. binding, IC50; for inhibition at 20 µM: read-out: Inh. of LTB4 rec. binding, %
Procedure: LTB4 Receptor Binding Study
A slightly modified method of Cheng and coworkers (Cheng J. B. et al.: J. Pharm. Expl. Ther. 236, 126 (1986)) was used. The membrane fraction was prepared from male guinea-pig spleen; 2 mg of membranes were incubated with 0.3 nM ^3 H-LTB4 at 25° C. for 30 min in 100 μl of the incubated mixture. The nonspecific binding was determined in the presence of 0.1 μM LTB4. The membranes were filtered though Whatman GF/C paper and washed triply with buffer. The radioactivity was measured by liquid scintillation spectrometry, and the specific binding of ^3 H-LTB4 to the receptor was determined.

[3] = values with mark n: p > 0.05, read-out: Ear edema, D: edema of ear lobe, % of inh.
[4] = values with mark n: p > 0.05, read-out: Ear edema, E: hyperemia of ear lobe, % of inh.
[5] = dose 100 mg/kg, oral, values with mark n: p > 0.05, read-out: Experimental pleuritis, A: volume of exudate in pleural cavity, % of inh.
[6] = dose 100 mg/kg, oral, values with mark n: p > 0.05, read-out: Experimental pleuritis, B: number of cells, % of inh.
[7] = dose 100 mg/kg, oral, values with mark n: p > 0.05, read-out: Experimental pleuritis, C: cellularity in a volume unit, % of inh.
[8] = dose 200 mg/kg, oral, values with mark n: p > 0.05, 200 mg/kg
[9] = dose 100 mg/kg, oral, values with mark n: p > 0.05, 100 mg/kg

Chain of LTB4 receptor (H0VYV8 1-348): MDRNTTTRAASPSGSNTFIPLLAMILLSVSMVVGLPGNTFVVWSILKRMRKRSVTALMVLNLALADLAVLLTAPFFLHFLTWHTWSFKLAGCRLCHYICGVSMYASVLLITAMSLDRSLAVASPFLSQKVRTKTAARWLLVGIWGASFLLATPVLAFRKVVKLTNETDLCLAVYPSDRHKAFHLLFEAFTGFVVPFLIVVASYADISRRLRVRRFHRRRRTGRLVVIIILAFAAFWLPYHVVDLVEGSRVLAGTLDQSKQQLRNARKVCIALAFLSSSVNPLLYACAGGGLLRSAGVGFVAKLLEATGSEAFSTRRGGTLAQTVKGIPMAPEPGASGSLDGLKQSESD

Compound	Antiox. effect, % of peroxidation inhibition [1] [%]	inhibition in vivo at 200 mg/kg (male mice; [3]) [%]	inhibition in vivo at 200 mg/kg (male mice; [4]) [%]	Inh. of LTB4 biosynth., % [2] [%]	pIC50 (LTD4 receptor)	inhibition at 100 µM (LTD4 receptor) [%]	pIC50 (LTB4 receptor)	inhibition at 20 µM (LTB4 receptor; at 20 μM) [%]	IC50 [2] [mg/L]	inhibition in vivo at 100 mg/kg (rats; [5]) [%]	inhibition in vivo at 100 mg/kg (rats; [6]) [%]	inhibition in vivo at 100 mg/kg (rats; [7]) [%]	inhibition in vivo at 100 mg/kg (Wistar-Han rats; dose 100 mg/kg) [%]	inhibition at 20 µM (LTD4 receptor) [%]	other results
CCCc1c(OCCCOc2ccc(Sc3ccccc3C(=O)O)cc2)ccc(C(C)=O)c1O [Compound 4]	34	6	2	100	4.98	100	4.89	47							inhibition in vivo at 100 mg/kg (rats; read-out: Experimental pleuritis, A: volume of exudate in pleural cavity, % of inh.): 10%; inhibition in vivo at 100 mg/kg (rats; read-out: Experimental pleuritis, B: number of cells, % of inh.): 35%; inhibition in vivo at 100 mg/kg (rats; read-out: Experimental pleuritis, C: cellularity in a volume unit, % of inh.): 30%; inhibition in vivo at 100 mg/kg (Wistar-Han rats): 35%
O=C(O)Cc1ccccc1Sc1ccc(OCCCN2CCN(Cc3ccc(Cl)cc3)CC2)cc1 [Compound 27]	20	7	22	89		22		12	9.2 (≈ 18 µM)	8	61	47	13		
O=C(O)Cc1ccccc1Sc1ccc(OCc2ccc3ccccc3n2)cc1 [Compound 29, 2-(4-(Quinoline-2-ylmethoxy)phenylsulfanyl)phenylacetic Acid]	0	2	22	44	6.22	95	4.62	50	28 (≈ 69.7 µM)	3	27	25	52		
CCCc1c(OCCCCOc2ccc(Sc3ccccc3CC(=O)O)cc2)ccc(C(C)=O)c1O [Compound 26, 2-(4-(4-(4-Acetyl-3-hydroxy-2-propylphenoxy)butoxy)phenylsulfanyl)phenylacetic Acid]	0	17	0	97	4.46	63	4.74	29		20	8	23	34		
O=C(O)c1ccccc1Sc1cccc(OCc2ccc3cc(Cl)ccc3n2)c1 [Compound 23, Tromethammonium salt of 2-(3-(6-Chloroquinoline-2-ylmethoxy)phenyl-sulfanyl)benzoic Acid]	9			96	7.00		4.87							99	Ear edema, D: edema of ear lobe, % of inh. (male mice; [8]): 1 (s) %; Ear edema, E: hyperemia of ear lobe, % of inh. (male mice; [8]): 8%; Inh. of LTB4 biosynth., IC50 [2]: 0.96 mg/L; Experimental pleuritis, A: volume of exudate in pleural cavity, % of inh. (rats; [9]): 17%; Experimental pleuritis, B: number of cells, % of inh. (rats; [9]): 31%; Experimental pleuritis, C: cellularity in a volume unit, % of inh. (rats; [9]): 17%; CE: inhibition of carrageenan-induced edema, % of inh. (Wistar-Han rats; dose 100 mg/kg): 50%; Inh. of LTB4 rec. binding, % (LTB4 receptor; at 20 μM): 33%
O=C(O)Cc1ccccc1Sc1cccc(OCc2ccc3cc(Cl)ccc3n2)c1 [Compound 31, 2-(3-(6-Chloroquinoline-2-ylmethoxy)phenylsulfanyl)phenylacetic Acid]	4	16	11	100	5.94		4.23	40	0.46 (≈ 1.06 µM)	24	75	39	13	83	
O=C(O)Cc1ccccc1Sc1cccc(OCCCN2CCN(Cc3ccc(Cl)cc3)CC2)c1 [Compound 28, Dihydrogenmaleate of 2-(3-(3-(1-(4-Chlorobenzyl)piperazin-4-yl)-propoxy)phenylsulfanyl)phenylacetic Acid]	3	16	19	100			5.10	69	0.6 (≈ 1.17 µM)	10	21	14	18	10	
